#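 Abbreviation: GI50, concentration required for 50% inhibition of growth. At the TGI there is no net growth.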
# Legend:
# Test in all cases: NCI tumour cell line growth inhibition, 384-well format
# 786-0 renal = system: 786-0 renal
# A498 renal = system: A498 renal
# A549 NSCLC = system: A549 NSCLC
# ACHN renal = system: ACHN renal
# BT-549 breast = system: BT-549 breast
# CAKI-1 renal = system: CAKI-1 renal
# CCRF-CEM leukemia = system: CCRF-CEM leukemia
# COLO 205 colon = system: COLO 205 colon
# DU-145 prostate = system: DU-145 prostate
# EKVX NSCLC = system: EKVX NSCLC
# HCC-2998 colon = system: HCC-2998 colon
# HCT-116 colon = system: HCT-116 colon
# HCT-15 colon = system: HCT-15 colon
# HL-60(TB) leukemia = system: HL-60(TB) leukemia
# HOP-62 NSCLC = system: HOP-62 NSCLC
# HOP-92 NSCLC = system: HOP-92 NSCLC
# HS 578T breast = system: HS 578T breast
# HT29 colon = system: HT29 colon
# IGROV1 ovarian = system: IGROV1 ovarian
# K-562 leukemia = system: K-562 leukemia
# KM12 colon = system: KM12 colon
# LOX IMVI melanoma = system: LOX IMVI melanoma
# M14 melanoma = system: M14 melanoma
# MALME-3M melanoma = system: MALME-3M melanoma
# MCF7 breast = system: MCF7 breast
# MDA-MB-231 breast = system: MDA-MB-231 breast
# MDA-MB-435 melanoma = system: MDA-MB-435 melanoma
# MDA-MB-468 breast = system: MDA-MB-468 breast
# MOLT-4 leukemia = system: MOLT-4 leukemia
# NCI-H226 lung = system: NCI-H226 lung
# NCI-H23 lung = system: NCI-H23 lung
# NCI-H322M lung = system: NCI-H322M lung
# NCI-H460 NSCLC = system: NCI-H460 NSCLC
# NCI-H522 lung = system: NCI-H522 lung
# NCI/ADR-RES ovarian = system: NCI/ADR-RES ovarian
# OVCAR-3 ovarian = system: OVCAR-3 ovarian
# OVCAR-4 ovarian = system: OVCAR-4 ovarian
# OVCAR-5 ovarian = system: OVCAR-5 ovarian
# OVCAR-8 ovarian = system: OVCAR-8 ovarian
# PC-3 prostate = system: PC-3 prostate
# RPMI-8226 leukemia = system: RPMI-8226 leukemia
# RXF 393 renal = system: RXF 393 renal
# SF-268 CNS = system: SF-268 CNS
# SF-295 CNS = system: SF-295 CNS
# SF-539 CNS = system: SF-539 CNS
# SK-MEL-28 melanoma = system: SK-MEL-28 melanoma
# SK-MEL-5 melanoma = system: SK-MEL-5 melanoma
# SK-OV-3 ovarian = system: SK-OV-3 ovarian
# SN12C renal = system: SN12C renal
# SNB-19 CNS = system: SNB-19 CNS
# SNB-75 CNS = system: SNB-75 CNS
# SW-620 colon = system: SW-620 colon
# T-47D breast = system: T-47D breast
# TK-10 renal = system: TK-10 renal
# U251 glioblastoma = system: U251 glioblastoma
# UACC-257 melanoma = system: UACC-257 melanoma
# UACC-62 melanoma = system: UACC-62 melanoma
# UO-31 renal = system: UO-31 renal
smiles,measurement,setting,value
CCN(CC)CCCCNc1ncc2cc(-c3cc(OC)cc(OC)c3)c(NC(=O)NC(C)(C)C)nc2n1,GI50,786-0 renal,3.05 µM
same,TGI,786-0 renal,12.7 µM
same,GI50,A498 renal,2.48 µM
same,TGI,A498 renal,15 µM
same,GI50,A549 NSCLC,6.04 µM
same,TGI,A549 NSCLC,18.5 µM
same,GI50,ACHN renal,4.17 µM
same,TGI,ACHN renal,15.8 µM
same,GI50,BT-549 breast,2.49 µM
same,TGI,BT-549 breast,12.8 µM
same,GI50,CAKI-1 renal,1.65 µM
same,TGI,CAKI-1 renal,10.9 µM
same,GI50,CCRF-CEM leukemia,2.16 µM
same,TGI,CCRF-CEM leukemia,4.68 µM
same,GI50,COLO 205 colon,7.16 µM
same,TGI,COLO 205 colon,19.4 µM
same,GI50,DU-145 prostate,7.2 µM
same,TGI,DU-145 prostate,19.5 µM
same,GI50,EKVX NSCLC,5.43 µM
same,TGI,EKVX NSCLC,17.5 µM
same,GI50,HCC-2998 colon,3.01 µM
same,TGI,HCC-2998 colon,10.5 µM
same,GI50,HCT-116 colon,2.86 µM
same,TGI,HCT-116 colon,8.34 µM
same,GI50,HCT-15 colon,3.02 µM
same,TGI,HCT-15 colon,11.6 µM
same,GI50,HL-60(TB) leukemia,1.78 µM
same,TGI,HL-60(TB) leukemia,3.19 µM
same,GI50,HOP-62 NSCLC,6.07 µM
same,TGI,HOP-62 NSCLC,18.2 µM
same,GI50,HOP-92 NSCLC,7.76 µM
same,TGI,HOP-92 NSCLC,20.1 µM
same,GI50,HS 578T breast,2.28 µM
same,TGI,HS 578T breast,9.13 µM
same,GI50,HT29 colon,1.6 µM
same,TGI,HT29 colon,3.46 µM
same,GI50,IGROV1 ovarian,3.56 µM
same,TGI,IGROV1 ovarian,16 µM
same,GI50,K-562 leukemia,2.56 µM
same,TGI,K-562 leukemia,6.17 µM
same,GI50,KM12 colon,5.32 µM
same,TGI,KM12 colon,17.3 µM
same,GI50,LOX IMVI melanoma,2.46 µM
same,TGI,LOX IMVI melanoma,6.58 µM
same,GI50,M14 melanoma,1.9 µM
same,TGI,M14 melanoma,3.82 µM
same,GI50,MALME-3M melanoma,1.88 µM
same,TGI,MALME-3M melanoma,3.35 µM
same,GI50,MCF7 breast,4.04 µM
same,TGI,MCF7 breast,16.2 µM
same,GI50,MDA-MB-231 breast,9.09 µM
same,TGI,MDA-MB-231 breast,21.1 µM
same,GI50,MDA-MB-435 melanoma,10.9 µM
same,TGI,MDA-MB-435 melanoma,23 µM
same,GI50,MDA-MB-468 breast,3.81 µM
same,TGI,MDA-MB-468 breast,10.1 µM
same,GI50,MOLT-4 leukemia,1.64 µM
same,TGI,MOLT-4 leukemia,3.26 µM
same,GI50,NCI-H226 lung,0.0358 µM
same,TGI,NCI-H226 lung,17.6 µM
same,GI50,NCI-H23 lung,10.9 µM
same,TGI,NCI-H23 lung,22.9 µM
same,GI50,NCI-H322M lung,6.37 µM
same,TGI,NCI-H322M lung,19.4 µM
same,GI50,NCI-H460 NSCLC,3.57 µM
same,TGI,NCI-H460 NSCLC,12.6 µM
same,GI50,NCI-H522 lung,10.1 µM
same,TGI,NCI-H522 lung,21.7 µM
same,GI50,NCI/ADR-RES ovarian,5.26 µM
same,TGI,NCI/ADR-RES ovarian,17.2 µM
same,GI50,OVCAR-3 ovarian,4.05 µM
same,TGI,OVCAR-3 ovarian,14.5 µM
same,GI50,OVCAR-4 ovarian,13.6 µM
same,TGI,OVCAR-4 ovarian,26.6 µM
same,GI50,OVCAR-5 ovarian,9.74 µM
same,TGI,OVCAR-5 ovarian,21.6 µM
same,GI50,OVCAR-8 ovarian,5.32 µM
same,TGI,OVCAR-8 ovarian,17.5 µM
same,GI50,PC-3 prostate,7.34 µM
same,TGI,PC-3 prostate,19.6 µM
same,GI50,RPMI-8226 leukemia,4.31 µM
same,TGI,RPMI-8226 leukemia,14.3 µM
same,GI50,RXF 393 renal,1.73 µM
same,TGI,RXF 393 renal,5.85 µM
same,GI50,SF-268 CNS,1.53 µM
same,TGI,SF-268 CNS,4.77 µM
same,GI50,SF-295 CNS,12.7 µM
same,TGI,SF-295 CNS,25.5 µM
same,GI50,SF-539 CNS,2.22 µM
same,TGI,SF-539 CNS,8.59 µM
same,GI50,SK-MEL-28 melanoma,3.23 µM
same,TGI,SK-MEL-28 melanoma,8.34 µM
same,GI50,SK-MEL-5 melanoma,1.92 µM
same,TGI,SK-MEL-5 melanoma,4.48 µM
same,GI50,SK-OV-3 ovarian,3.77 µM
same,TGI,SK-OV-3 ovarian,14 µM
same,GI50,SN12C renal,4.16 µM
same,TGI,SN12C renal,15 µM
same,GI50,SNB-19 CNS,13.6 µM
same,TGI,SNB-19 CNS,26.7 µM
same,GI50,SNB-75 CNS,0.613 µM
same,TGI,SNB-75 CNS,13.8 µM
same,GI50,SW-620 colon,11.3 µM
same,TGI,SW-620 colon,23.4 µM
same,GI50,T-47D breast,2.82 µM
same,TGI,T-47D breast,8.19 µM
same,GI50,TK-10 renal,10.6 µM
same,TGI,TK-10 renal,22.7 µM
same,GI50,U251 glioblastoma,3.84 µM
same,TGI,U251 glioblastoma,12.6 µM
same,GI50,UACC-257 melanoma,1.98 µM
same,TGI,UACC-257 melanoma,3.41 µM
same,GI50,UACC-62 melanoma,5.33 µM
same,TGI,UACC-62 melanoma,17 µM
same,GI50,UO-31 renal,8.38 µM
same,TGI,UO-31 renal,20.7 µM

# From PubChem BioAssay (NCI)
